Data: patent publication US5162318A, “Benzimidazolinone derivatives” (Yamanouchi Pharmaceutical Co., Ltd., priority 1990, dated 1992)
Where a name gives a salt, the structure may show the parent alone.

Assays:
[1] = system: secretion of the endogenous pulmonary surfactant; conditions: Post et al.: Lung 161, 349-359, 1983; cited from earlier work
[2] = system: pulmonary surfactant secretion; test: Stimulatory effect on pulmonary surfactant secretion (disaturated phosphatidylcholine in bronchoalveolar lavage fluid); type: in vivo, guinea pig (male Hartley); conditions: guinea pigs; for Pharmacological activity: % increase of disaturated phosphatidylcholine (DSPC) compared to control values: 50 mg/kg i.p. once, lavage 3 hours later, number of animals in parentheses, * significantly different from control values (p < 0.05), Compounds A and B not marked *; for stimulation of pulmonary surfactant secretion (in words): conclusion from Table 1, 50 mg/kg i.p.
Procedure: The stimulatory effect of the compound of the present invention on pulmonary surfactant secretion In the experiment, male Hartley guinea pigs weighing 300-350 g were used. Methods 50 mg/kg of the test compound was intraperitoneally administered to guinea pigs once. Three hours later, the animals were anesthetized with 100 mg/kg of pentobarbital sodium and sacrificed by bleeding from the abdominal aorta and vena cava. Then, bronchoalveolar lavage with 10 ml/kg of ice-cooled physiological saline was performed twice. The combined bronchoalveolar lavage fluid was centrifuged at 1,000 rpm for 10 minutes at 4° C. From the supernatant of bronchoalveolar lavage fluid, the lipid was extracted in accordance with the method of Folch et al. (Journal of Biological Chemistry, 226, 497-502, 1957). The characteristic component of pulmonary surfactant, i.e., disaturated phosphatidylcholine was extracted by the method of Gilfillan et al. (Journal of Lipid Research, 24, 1651- 1656, 1983). The disaturated phosphatidylcholine was assayed with Nescoat PL Kit-K (Nippon Shoji Co., Ltd.) and the percent increase compared to a control group was determined (M. Takayama, et al.: Clin. Chim. Acta, 79, 93-98, 1977).

Row | SMILES | activity to promote secretion of the endogenous pulmonary surfactant (in words) [1] | Pharmacological activity: % increase of disaturated phosphatidylcholine (DSPC) compared to control values [2] | stimulation of pulmonary surfactant secretion (in words) [2]
1 | Nc1c(Br)cc(Br)cc1CN[C@H]1CC[C@H](O)CC1 [ambroxol hydrochloride] | only substance known to have such activity | – | –
2 | CN(C)CCn1c(=O)[nH]c2c(Br)cc(Br)cc21.Cl [4(3), 4,6-Dibromo-1,3-dihydro-1-(2-dimethylaminoethyl)-2H-benzimidazol-2-one hydrochloride] | – | 32.3 ± 7.0% | –
3 | CCN(CC)CCn1c(=O)[nH]c2ccccc21 [Compound B, 1,3Dihydro-1-(2-diethylaminoethyl)-2H-benzimidazol-2-one] | – | -20.7% | do not stimulate secretion of pulmonary surfactant but rather tend to decrease the secretion
4 | CN(C)CCCn1c(=O)[nH]c2ccccc21 [Compound A, 1,3Dihydro-1-(3-dimethylaminopropyl)-2H-benzimidazol-2-one] | – | -9.3% | do not stimulate secretion of pulmonary surfactant but rather tend to decrease the secretion
5 | CN(C)CCn1c(=O)[nH]c2ccc(Cl)cc21.Cl [11(4), 6-Chloro-1,3-dihydro-1-(2-dimethylaminoethyl)-2H-benzimidazol-2-one hydrochloride] | – | 37.8 ± 13.2% | –
6 | Cl.O=c1[nH]c2ccc(Cl)cc2n1CCN1CCCC1 [19(4), 6-Chloro-1,3-dihydro-1-[2-(1-pyrrolidinyl)ethyl]-2H-benzimidazol-2-one hydrochloride] | – | 33.1 ± 8.3% | –
7 | CN(C)CCn1c(=O)[nH]c2ccccc21.Cl [Example 12(5), 1,3-dihydro-1-(2-dimethylaminoethyl)-2H-benzimidazol-2-one hydrochloride] | – | 27.4 ± 4.9% | –
8 | CN(C)CCn1c(=O)[nH]c2ccc(Br)cc21.Cl [3(5), 6-Bromo-1,3-dihydro-1-(2-dimethylaminoethyl)-2H-benzimidazol-2-one hydrochloride] | – | 27.9 ± 6.2% | –
